In US20230027854A1, “ISOXAZOLE DERIVATIVES TARGETING TACC3 AS ANTICANCER AGENTS” (A2A Pharmaceuticals, inc., priority 2019, published 2023):

Experiments:
[1] = test system: JIMT-1 cells; assay: JIMT-1 cell growth inhibition / cell viability (SRB assay); format: cell-based; details: Homo sapiens; JIMT-1 cells; read-out: IC50
Experimental: The ability of the compounds of the present disclosure to treat TACC3-mediated cancers, or associated symptoms or complications thereof, was determined using the following procedures. The compounds of the present disclosure were tested for their activity against cell death induction using a JIMT-1 cell line, which was a cell line having high level of TACC3. The concentration of each compound that was required for half-maximal inhibition of cell proliferation was calculated by a GraphPad Prism (GraphPad Software).

[2] = test system: JIMT-1 cells; assay: Western blot of mitotic arrest, DNA damage and apoptosis markers; format: cell-based, human; details: 24 hours, dose response
Experimental: JIMT-1, MDA-MB-436, MDA-MB-157 and BT-474 T-DM1R cell lines were tested with respect to their response to these three drugs. […] Although higher KHS101 doses was included, which were used by others (Campo & Breuer, 2018), an induction of these markers was only observed at very high doses.

COc1ccc(-c2cc(Nc3ccnc(N4CCCCC4)n3)on2)cc1 [Compound 42, 3-(4-methoxyphenyl)-N-(2-(piperidin-1-yl)pyrimidin-4-yl)isoxazol-5-amine]
IC50 [1]: 116 nM

COc1ccc(-c2cc(Nc3ccnc(N4CCC(C)CC4)n3)on2)cc1 [Compound 43, 3-(4-methoxyphenyl)-N-(2-(4-methylpiperidin-1-yl)pyrimidin-4-yl)isoxazol-5-amine]
IC50 [1]: 204 nM

COc1ccc(-c2cc(Nc3ccnc(N4CCC(C(F)(F)F)CC4)n3)on2)cc1 [Compound 44, 3-(4-methoxyphenyl)-N-(2-(4-(trifluoromethyl)piperidin-1-yl)pyrimidin-4-yl)isoxazol-5-amine]
IC50 [1]: 56 nM

COc1ccc(-c2cc(Nc3ccnc(N4CCCC4)n3)on2)cc1 [Compound 45, 3-(4-methoxyphenyl)-N-(2-(pyrrolidin-1-yl)pyrimidin-4-yl)isoxazol-5-amine]
IC50 [1]: 105 nM

COc1ccc(-c2cc(Nc3ccnc(N4CCC(CCO)CC4)n3)on2)cc1 [Compound 46, 2-(1-(4-((3-(4-methoxyphenyl)isoxazol-5-yl)amino)pyrimidin-2-yl)piperidin-4-yl)ethan-1-ol]
IC50 [1]: 3970 nM

COc1ccc(-c2cc(Nc3ccnc(N4CCN(CCO)CC4)n3)on2)cc1 [Compound 47, 2-(4-(4-((3-(4-methoxyphenyl)isoxazol-5-yl)amino)pyrimidin-2-yl)piperazin-1-yl)ethan-1-ol]
IC50 [1]: > 10000 nM

COc1ccc(-c2cc(Nc3ccnc(N4CCN(C)CC4)n3)on2)cc1 [Compound 48, 3-(4-methoxyphenyl)-N-(2-(4-methylpiperazin-1-yl)pyrimidin-4-yl)isoxazol-5-amine]
IC50 [1]: 1560 nM

COc1ccc(-c2cc(Nc3ccnc(N4CCNCC4)n3)on2)cc1 [Compound 49, 3-(4-methoxyphenyl)-N-(2-(piperazin-1-yl)pyrimidin-4-yl)isoxazol-5-amine]
IC50 [1]: > 10000 nM

CCOC(=O)C1CCN(c2nccc(Nc3cc(-c4ccc(OC)cc4)no3)n2)CC1 [Compound 50, Ethyl 1-(4-((3-(4-methoxyphenyl)isoxazol-5-yl)amino)pyrimidin-2-yl)piperidine-4-carboxylate]
IC50 [1]: > 10000 nM

COc1ccc(-c2cc(Nc3ccnc(N4CCC(C(=O)O)CC4)n3)on2)cc1 [Compound 51, 1-(4-((3-(4-methoxyphenyl)isoxazol-5-yl)amino)pyrimidin-2-yl)piperidine-4-carboxylic acid]
IC50 [1]: > 10000 nM

COc1ccc(-c2cc(Nc3nc(N4CCC(F)CC4)ncc3Cl)on2)cc1 [Compound 59, N-(5-chloro-2-(4-fluoropiperidin-1-yl)pyrimidin-4-yl)-3-(4-methoxyphenyl)isoxazol-5-amine]
IC50 [1]: 800 nM

COc1ccc(-c2cc(Nc3nc(N4CCC(F)CC4)ncc3F)on2)cc1 [Compound 60, N-(5-fluoro-2-(4-fluoropiperidin-1-yl)pyrimidin-4-yl)-3-(4-methoxyphenyl)isoxazol-5-amine]
IC50 [1]: 540 nM

COc1ccc(-c2cc(Nc3cc(C)nc(N4CCC(F)CC4)n3)on2)cc1 [Compound 61, N-(2-(4-fluoropiperidin-1-yl)-6-methylpyrimidin-4-yl)-3-(4-methoxyphenyl)isoxazol-5-amine]
IC50 [1]: 1000 nM

COc1ccc(-c2cc(N(C)c3ccnc(N4CCOCC4)n3)on2)cc1 [Compound 63, 3-(4-methoxyphenyl)-N-methyl-N-(2-morpholinopyrimidin-4-yl)isoxazol-5-amine]
IC50 [1]: 160 nM

CN(C)c1ccc(-c2cc(Nc3ccnc(N4CCC(F)CC4)n3)on2)cc1 [Compound 64, 3-(4-(dimethylamino)phenyl)-N-(2-(4-fluoropiperidin-1-yl)pyrimidin-4-yl)isoxazol-5-amine]
IC50 [1]: 157 nM

COc1ccc(-c2cc(Nc3ccnc(N4CCC(F)CC4)n3)on2)cc1F [Compound 65, 3-(3-fluoro-4-methoxyphenyl)-N-(2-(4-fluoropiperidin-1-yl)pyrimidin-4-yl)isoxazol-5-amine]
IC50 [1]: 145 nM

COc1ccc(-c2cc(Nc3ccnc(N4C5CCC4COC5)n3)on2)cc1F [Compound 66, N-(2-(3-oxa-8-azabicyclo[3.2.1]octan-8-yl)pyrimidin-4-yl)-3-(3-fluoro-4-methoxyphenyl)isoxazol-5-amine]
IC50 [1]: 53 nM

COc1ccc(-c2cc(Nc3ccnc(N4CCCC4)n3)on2)cc1F [Compound 67, 3-(3-fluoro-4-methoxyphenyl)-N-(2-(pyrrolidin-1-yl)pyrimidin-4-yl)isoxazol-5-amine]
IC50 [1]: 49 nM

CC(C)CNc1ccnc(NCc2csc(-c3ccccc3)n2)n1 [KHS101, reference compound]
induction of mitotic arrest, DNA damage and apoptosis markers [2]: considerably higher doses
